One block for each molecule: values may come before it.
Experiments:
Type in all cases: physicochemical
[1] = Coupling of water and castor oil by hydrotropes
[2] = Hard surface cleaning formulation freeze-thaw testing; conditions: Example 5 formulation containing the solvent, 0° C. freezer >12 hours, thaw to room temperature
Procedure: Formulations as in Example 5 were prepared by combining ingredients and mixing until homogeneous. Freeze-thaw testing was performed over 3 cycles. Each cycle was putting the formulations into a 0° C. freezer for greater than 12 hours, then taking them out and allowing the samples to thaw to room temperature and then making the visual observation.

[3] = Coupling of water and octanoic acid by hydrotropes (amount producing a single phase)
Procedure: Hydrotropes were added to a two-component mixture of octanoic acid and deionized (DI) water to find the amount that produced a single phase from the two separate phases of water and octanoic acid.
The percent hydrotrope required to compatibilize phases (and the resulting percent octanoic acid) were calculated and the results are shown in Table 4 as well as FIG. 1.

[4] = Coupling of water and soy methyl ester by hydrotropes
Procedure: Hydrotropes were added to a two-component mixture of soy methyl ester and DI water to find the amount that produced a single phase from the two separate phases of water and soy methyl ester. The percent hydrotrope required to compatibilize the phases was calculated.

[5] = Hard surface cleaning formulation heat cloud point testing; conditions: Example 5 formulation containing the solvent
Procedure: Formulations as in Example 5 were prepared by combining ingredients and mixing until homogeneous.

[6] = Hard surface cleaning formulation pH testing over 7 days; conditions: 5 g solvent per 100 g
Procedure: Formulations were prepared by combining ingredients and mixing until homogeneous. Next, pH measurements were taken over 7 days.

[7] = Vanillin composition in ketal alcohol (1a); conditions: 75% ketal alcohol (1a) to 25% vanillin by weight, room temperature
Procedure: Vanillin was dissolved into the ketal alcohol (1a) at room temperature using 75% ketal alcohol (1a) to 25% vanillin by weight.

[8] = ratio of water to castor oil 10:90
[9] = ratio of water to castor oil 30:70
[10] = ratio of water to castor oil 50:50
[11] = ratio of water to castor oil 70:30
[12] = ratio of water to castor oil 90:10
[13] = ratio of water:octanoic acid 10:90
[14] = ratio of water:octanoic acid 30:70
[15] = ratio of water:octanoic acid 50:50
[16] = ratio of water:octanoic acid 70:30
[17] = ratio of water:octanoic acid 90:10
[18] = ratio of water:soy methyl esters 10:90
[19] = ratio of water:soy methyl esters 30:70
[20] = ratio of water:soy methyl esters 50:50
[21] = ratio of water:soy methyl esters 70:30
[22] = ratio of water:soy methyl esters 90:10

Wt % Castor oil (at compatibilization) [1, 8]: 35%
Wt % Hydrotrope required to compatibilize phases [1, 8]: 61%
Wt % Castor oil (at compatibilization) [1, 9]: 17%
Wt % Hydrotrope required to compatibilize phases [1, 9]: 76%
Wt % Castor oil (at compatibilization) [1, 10]: 9%
Wt % Hydrotrope required to compatibilize phases [1, 10]: 82%
Wt % Castor oil (at compatibilization) [1, 11]: 4%
Wt % Hydrotrope required to compatibilize phases [1, 11]: 86%
Wt % Castor oil (at compatibilization) [1, 12]: 1%
Wt % Hydrotrope required to compatibilize phases [1, 12]: 85%
Freeze-thaw visual observation ([2]; Cycle 1): stable;
Freeze-thaw visual observation ([2]; Cycle 2): gradient;
Freeze-thaw visual observation ([2]; Cycle 3): gradient;
Wt % Hydrotrope required to compatibilize phases [3, 13]: 38%
Wt % Octanoic Acid (resulting, at compatibilization) [3, 13]: 55%
Wt % Hydrotrope required to compatibilize phases [3, 14]: 59%
Wt % Octanoic Acid (resulting, at compatibilization) [3, 14]: 29%
Wt % Hydrotrope required to compatibilize phases [3, 15]: 69%
Wt % Octanoic Acid (resulting, at compatibilization) [3, 15]: 15%
Wt % Hydrotrope required to compatibilize phases [3, 16]: 66%
Wt % Octanoic Acid (resulting, at compatibilization) [3, 16]: 10%
Wt % Hydrotrope required to compatibilize phases [3, 17]: 58%
Wt % Octanoic Acid (resulting, at compatibilization) [3, 17]: 4%
Amount of hydrotrope that produced a single phase ([3]; water:octanoic acid 10:90 (DI water 0.5 g, octanoic acid 4.5 g)): 3.11 grams
Amount of hydrotrope that produced a single phase ([3]; water:octanoic acid 30:70 (DI water 1.5 g, octanoic acid 3.5 g)): 7.2 grams
Amount of hydrotrope that produced a single phase ([3]; water:octanoic acid 50:50 (DI water 5.0 g, octanoic acid 5.0 g)): 22.68 grams
Amount of hydrotrope that produced a single phase ([3]; water:octanoic acid 70:30 (DI water 3.5 g, octanoic acid 1.5 g)): 9.79 grams
Amount of hydrotrope that produced a single phase ([3]; water:octanoic acid 90:10 (DI water 4.5 g, octanoic acid 0.5 g)): 6.84 grams
Wt % Hydrotrope required to compatibilize the phases [4, 18]: 78%
Wt % Soy Methyl Esters (at compatibilization) [4, 18]: 20%
Wt % Hydrotrope required to compatibilize the phases [4, 19]: 83%
Wt % Soy Methyl Esters (at compatibilization) [4, 19]: 12%
Wt % Hydrotrope required to compatibilize the phases [4, 20]: 86%
Wt % Soy Methyl Esters (at compatibilization) [4, 20]: 7%
Wt % Hydrotrope required to compatibilize the phases [4, 21]: 86%
Wt % Soy Methyl Esters (at compatibilization) [4, 21]: 4%
Wt % Hydrotrope required to compatibilize the phases [4, 22]: 84%
Wt % Soy Methyl Esters (at compatibilization) [4, 22]: 2%
Cloudiness on heating [5]: showed no signs of cloudiness
Cloud point ([5]; heated while mixing): >100 °C
pH stability of the formulation containing the solvent [6]: underwent significant pH drift downward
SMILES: CCOC(=O)CCC1(C)OCC(CO)O1 (stereo not drawn) [EtLGK, glycerol ketal of ethyl levulinic acid]

SMILES: COc1cc(C=O)ccc1O [Vanillin]
Appearance of mixture in ketal alcohol (1a) [7]: homogeneous clear liquid with no signs of precipitate

Source: patent US9458414B2, “Cleaning, surfactant, and personal care compositions” (SEGETIS, INC., priority 2012, dated 2016)
